The assay addresses T1, Mth α-subunit (NrdE) of Class Ib ribonucleotide reductase (Mycolicibacterium thermoresistibile, UniProt G7CEK2).
T1 sequence (G7CEK2 1-693): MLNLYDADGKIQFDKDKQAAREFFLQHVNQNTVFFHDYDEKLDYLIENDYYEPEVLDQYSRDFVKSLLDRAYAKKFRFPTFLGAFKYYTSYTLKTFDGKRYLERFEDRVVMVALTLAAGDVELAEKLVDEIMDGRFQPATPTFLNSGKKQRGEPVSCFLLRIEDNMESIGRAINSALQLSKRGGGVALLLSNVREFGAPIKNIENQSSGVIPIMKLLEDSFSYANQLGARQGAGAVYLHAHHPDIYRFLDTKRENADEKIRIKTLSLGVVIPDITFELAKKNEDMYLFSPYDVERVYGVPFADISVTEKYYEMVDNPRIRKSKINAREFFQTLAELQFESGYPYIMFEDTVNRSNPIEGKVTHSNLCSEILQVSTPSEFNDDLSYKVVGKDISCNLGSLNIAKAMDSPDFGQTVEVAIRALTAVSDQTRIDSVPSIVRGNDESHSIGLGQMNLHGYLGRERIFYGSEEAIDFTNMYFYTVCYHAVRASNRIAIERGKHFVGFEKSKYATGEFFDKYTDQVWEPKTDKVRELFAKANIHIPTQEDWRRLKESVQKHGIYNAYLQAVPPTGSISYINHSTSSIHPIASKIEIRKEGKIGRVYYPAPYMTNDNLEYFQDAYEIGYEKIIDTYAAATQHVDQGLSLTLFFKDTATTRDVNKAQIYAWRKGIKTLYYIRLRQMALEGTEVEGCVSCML
Description: isothermal titration calorimetry. The format is binding. A general note: Isothermal titration calorimetry measures the heat released or taken up as one component is titrated into another.

As usually defined, the Kd is the free concentration of one partner at which half of the binding sites on the other are occupied at equilibrium, for simple one-to-one binding. A lower Kd goes with tighter binding. Regarding `Cc1cn([C@H]2C[C@H](O)[C@@H](COP(=O)(O)OP(=O)(O)OP(=O)(O)O)O2)c(=O)[nH]c1=O` [dTTP], the affinity, expressed as Kd, was 3.3 µM. This lies in the single-digit micromolar range.
`Nc1ncnc2c1ncn2[C@H]1C[C@H](O)[C@@H](COP(=O)(O)OP(=O)(O)OP(=O)(O)O)O1` [dATP]: the affinity, expressed as Kd, was 1.1 µM. Against the preceding compound, the Kd is about 3-fold lower.
`Nc1nc2c(ncn2[C@H]2C[C@H](O)[C@@H](COP(=O)(O)OP(=O)(O)OP(=O)(O)O)O2)c(=O)[nH]1` [dGTP] displayed a Kd of 4.6 µM.
`Nc1ccn([C@H]2C[C@H](O)[C@@H](COP(=O)(O)OP(=O)(O)OP(=O)(O)O)O2)c(=O)n1` [dCTP]: the affinity, expressed as Kd, was 6.6 µM.
For the compound `Cc1cn([C@@H]2O[C@H](COP(=O)(O)OP(=O)(O)OP(=O)(O)O)[C@@H](O)[C@H]2O)c(=O)[nH]c1=O` [TTP], the Kd is 0.64 µM.
